Measurements: US12263156B2, “Use of small molecule inhibitors of the BfrB:Bfd interaction in biofilms” (priority 2020, dated 2025)

Experiments:
[1] = system: P. aeruginosa PAO1; assay: Half maximal inhibitory concentration (IC50) of planktonic growth, CFU/mL enumeration; assay type: cell-based, Pseudomonas aeruginosa; conditions: for IC50: Pseudomonas aeruginosa, PAO1, planktonic growth, 24 h, 35° C, defined media, 2% DMSO, average ± SD of three experiments
Experimental: Chemicals were purchased from Fisher Scientific (Waltham, MA) unless otherwise stated. P. aeruginosa PAO1 was obtained from the University of Washington Genome center.^80 The PAO1 strain expressing enhanced yellow fluorescent protein (EYFP) was prepared as described in Soldano, A.; Yao, H.; Chandler, J. R.; Rivera, M. (2020) Inhibiting Iron Mobilization from Bacterioferritin in Pseudomonas aeruginosa Impairs Biofilm Formation Irrespective of Environmental Iron Availability. ACS Infect. Dis. 6, 447-458. 10.1021/acsinfecdis.9b00398.^26 Clinical isolates of P. aeruginosa were purchased from JMI Laboratories (North Liberty, IA, USA). […] Starter cultures of P. aeruginosa PAO1 in 5 mL LB media were grown for 13 hours in 50 mL conical tubes at 37° C. and 220 rpm. For biofilm experiments, a EYFP-expressing P. aeruginosa strain was routinely grown in Pseudomonas Isolation (PI) media (20 g L^−1 peptone, 0.3 g L^−1 MgCl2·6H O, 10 g L^−1 K2SO4, 25 mg L^−1 irgasan, and 20 mL L^−1 glycerol, pH 7.0). Starter cultures were grown from a single colony at 37° C. and shaking at 220 rpm for 14 hours in 5 mL PI media supplemented with 10 μM Fe. Pellicle biofilms were cultured for 48 hours at 30° C. in PI media supplemented with 20 μM Fe. Surface-attached biofilms were cultured in AB minimal media^81 supplemented with trace metals [0.15 μM (NH4)2MoO4, 3 μM CuSO4, 2 μM Co(NO3)2, 9.4 μM Na2B4O7, and 7.6 μM ZnSO4], 3 mM glucose and 15 μM Fe. Iron supplementation was carried out by addition of a small volume of filter-sterilized 10 mM (NH4)2Fe(SO4)2 (pH˜2.0) solution. […]; IC50 values (Table 1 below) were determined as reported previously^25 with small modifications. In brief: precultures of P. aeruginosa PAO1 (5 mL) were grown in LB media for 13 hours at 37° C. and 220 rpm in 50 mL conical tubes (VWR International, PA). The cells were centrifuged for 5 min at 4,000 rpm and 4° C., washed two times and then diluted in buffer (100 mM KH2PO4 and 15 mM (NH4)2SO4 to an optical density at 600 nm (OD600) of 0.1. A small volume of compound stock solution (10 mM) was transferred to a microcentrifuge tube, initially diluted with DMSO to 20 μL, and then diluted to 1 mL with preculture cell suspension in defined media with OD600=0.0001, so the final DMSO concentration is 2%. The resultant cell suspension (200 μL) was transferred to a clear-bottom polystyrene 96-well plate (VWR International, PA) covered with a lid and incubated at 35° C. and 205 cpm for 24 h in a Synergy H1 microplate reader (Biotek Instruments Inc., Winooski, VT). The cell cultures were serially diluted and then plated on PI Agar (PIA; BD Biosciences, San Jose, CA) plates for enumeration of viable cells (CFU/mL). The % growth was calculated from the ratio CFU/mL(treated)/CFU/mL(untreated control). To calculate the IC50 values, the % growth was plotted as a function of compound concentration, expressed as log[compound] (μM), and fitted to the 4-parameter logistic model describing the sigmoid-shaped response pattern (equation 1),^83 where b is the slope factor, max is the upper asymptote (plateau), and min is the lower asymptote. Values are the average and standard deviation from three independent experiments.

[2] = system: EYFP-expressing P. aeruginosa PAO1 biofilms; assay: Flow cell biofilm assay (CLSM imaging, COMSTAT biomass); assay type: cell-based, Pseudomonas aeruginosa; conditions: 3-day old biofilms, 24 h; KM-5-25 40 and 80 μM, KM-5-66 15, 30 and 50 μM
Experimental: ACS Infect. Dis. […] The experimental shear stress was 0.14-dyn/cm^2 (shear rate=14 s^−1, pressure=7.1 mbar, flow rate=0.4 mL/min) and the switch time was set to 540 s. […] During biofilm growth and challenge with antibacterial, the culture medium in the reservoirs was removed every 12 hours and replaced with fresh pre-warmed medium. […] The biofilms were imaged with the aid of a Leica TCS SP8 confocal microscope (Leica Microsystems, Germany) using a HC PL apo CS2 63×/1.4 oil objective. […] Image stacks were acquired with a z-step size of 0.3 μm at randomly chosen positions. The Leica Application Suite X (LAS-X) software was used for image stack processing.^54 Quantitative analysis of biofilm biomass was performed using the COMSTAT computer program^54 and the Otsu method of automatic thresholding.^85
The treated biofilms were counterstained with the cell impermeable fluorescent nucleic acid dye Sytox Red and then imaged with the aid of confocal laser scanning microscopy (CLSM).

| Compound | IC50 [1] | fold lower IC50 relative to JAG-5-7 ([1]; relative to JAG-5-7) | killing of flow cell biofilm cells (CLSM images) [2] | fold decrease of IC50 relative to compound 16 ([1]; relative to compound 16) |
| --- | --- | --- | --- | --- |
| O=C1NC(=O)c2c(NCc3cc(Cl)ccc3O)cccc21 [KM-5-25] | 69 ± 7 µM | ~2 fold | concentration dependent manner | – |
| O=C1NC(=O)c2c(NCCCc3cc(O)cc(Cl)c3)cccc21 [KM-5-66] | 42 ± 6 µM | – | concentration dependent manner | ~3 fold |
